Results: patent US9873709B2 (priority 2013, dated 2018)

Test system: JAK1-dependent STAT6 phosphorylation downstream of IL-13 stimulation in TF-1 human erythroleukemia cells
Assay: cells
Conditions: TF-1, read-out: IL-13-pSTAT6 IC50

## CCOC(=O)N1CC=C(c2cccn3nc(Nc4ccc(C(=O)NCC5CC56CCNCC6)cc4)nc23)CC1 (centres unmarked) [Example 2-306, ethyl 4-[2-[4-(6-azaspiro[2.5]octan-2-ylmethylcarbamoyl)anilino]-[1,2,4]triazolo[1,5-a]pyridin-8-yl]-3,6-dihydro-2H-pyridine-1-carboxylate]
  IC50: 438 nM

## O=C(CCC(F)(F)F)N1CC=C(c2cccn3nc(Nc4ccc(C(=O)N5CCCC5Cc5ccccn5)cc4)nc23)CC1 (centres unmarked) [Example 2-396, 4,4,4-trifluoro-1-[4-[2-[4-[2-(2-pyridylmethyl)pyrrolidine-1-carbonyl]anilino]-[1,2,4]triazolo[1,5-a]pyridin-8-yl]-3,6-dihydro-2H-pyridin-1-yl]butan-1-one]
  IC50: 5.4 nM

## N#CCCN1CCN(C(=O)c2ccc(Nc3nc4c(C5=CCN(C(=O)CCC(F)(F)F)CC5)cccn4n3)cc2)CC1 [Example 2-142, 3-[4-[4-[[8-[1-(4,4,4-trifluorobutanoyl)-3,6-dihydro-2H-pyridin-4-yl]-[1,2,4]triazolo[1,5-a]pyridin-2-yl]amino]benzoyl]piperazin-1-yl]propanenitrile]
  IC50: 6.6 nM

## CN1CCC(N(C)C(=O)c2ccc(Nc3nc4c(C5=CCN(C(=O)C6C(C)(C)C6(C)C)CC5)cccn4n3)cc2)CC1 [Example 2-161, N-methyl-N-(1-methyl-4-piperidyl)-4-[[8-[1-(2,2,3,3-tetramethylcyclopropanecarbonyl)-3,6-dihydro-2H-pyridin-4-yl]-[1,2,4]triazolo[1,5-a]pyridin-2-yl]amino]benzamide]
  IC50: 44.2 nM

## CN1CCC(N(C)C(=O)c2ccc(Nc3nc4c(C5=CCN(C(=O)N6CC(C#N)C6)CC5)cccn4n3)cc2)CC1 [Example 2-5, 4-[[8-[1-(3-cyanoazetidine-1-carbonyl)-3,6-dihydro-2H-pyridin-4-yl]-[1,2,4]triazolo[1,5-a]pyridin-2-yl]amino]-N-methyl-N-(1-methyl-4-piperidyl)benzamide]
  IC50: 1090 nM

## CC(C)COC(=O)N1CC=C(c2cccn3nc(Nc4ccc(C(=O)N(C)C5CCN(C)CC5)cc4)nc23)CC1 [Example 2-345, isobutyl 4-[2-[4-[methyl-(1-methyl-4-piperidyl)carbamoyl]anilino]-[1,2,4]triazolo[1,5-a]pyridin-8-yl]-3,6-dihydro-2H-pyridine-1-carboxylate]
  IC50: 23.7 nM

## CCOC(=O)N1CC=C(c2cccn3nc(Nc4ccc(C(=O)NC(C)c5cccc(C)n5)cc4)nc23)CC1 (centres unmarked) [Example 2-170, ethyl 4-[2-[4-[1-(6-methyl-2-pyridyl)ethylcarbamoyl]anilino]-[1,2,4]triazolo[1,5-a]pyridin-8-yl]-3,6-dihydro-2H-pyridine-1-carboxylate]
  IC50: 14.8 nM

## NCC1CCN(C(=O)c2ccc(Nc3nc4c(C5=CCN(C(=O)CCC(F)(F)F)CC5)cccn4n3)cc2)C1 (centres unmarked) [Example 2-447, 1-[4-[2-[4-[3-(aminomethyl)pyrrolidine-1-carbonyl]anilino]-[1,2,4]triazolo[1,5-a]pyridin-8-yl]-3,6-dihydro-2H-pyridin-1-yl]-4,4,4-trifluoro-butan-1-one]
  IC50: 275 nM

## CN1CCCC(CNC(=O)c2ccc(Nc3nc4c(N5CCC(O)(c6ccc(Cl)cc6)CC5)cccn4n3)cc2)C1 (centres unmarked) [Example 1-141, 4-[[8-[4-(4-chlorophenyl)-4-hydroxy-1-piperidyl]-[1,2,4]triazolo[1,5-a]pyridin-2-yl]amino]-N-[(1-methyl-3-piperidyl)methyl]benzamide]
  IC50: 57.9 nM

## CN1CCC(N(C)C(=O)c2ccc(Nc3nc4c(N5CCC(CC(=O)O)(c6ccc(Cl)cc6)CC5)cccn4n3)cc2)CC1 [Example 1-301, 2-[4-(4-chlorophenyl)-1-[2-[4-[methyl-(1-methyl-4-piperidyl)carbamoyl]anilino]-[1,2,4]triazolo[1,5-a]pyridin-8-yl]-4-piperidyl]acetic acid]
  IC50: 179 nM

## O=C(NCC1CCC2(CCNCC2)O1)c1ccc(Nc2nc3c(C4=CCN(C(=O)CCC(F)(F)F)CC4)cccn3n2)cc1 (centres unmarked) [Example 2-83, N-(1-oxa-8-azaspiro[4.5]decan-2-ylmethyl)-4-[[8-[1-(4,4,4-trifluorobutanoyl)-3,6-dihydro-2H-pyridin-4-yl]-[1,2,4]triazolo[1,5-a]pyridin-2-yl]amino]benzamide]
  IC50: 197 nM

## O=C(c1ccc(Nc2nc3c(N4CCC(O)(c5ccc(Cl)cc5)CC4)cccn3n2)cc1)N1CC2(CCNC2)C1 [Example 1-224, [4-[[8-[4-(4-chlorophenyl)-4-hydroxy-1-piperidyl]-[1,2,4]triazolo[1,5-a]pyridin-2-yl]amino]phenyl]-(2,7-diazaspiro[3.4]octan-2-yl)methanone]
  IC50: 111 nM

## CCOC(=O)N1CC=C(c2cccn3nc(Nc4ccc(C(=O)N5CCC(c6ccncc6)C5)cc4)nc23)CC1 (centres unmarked) [Example 2-62, ethyl 4-[2-[4-[3-(4-pyridyl)pyrrolidine-1-carbonyl]anilino]-[1,2,4]triazolo[1,5-a]pyridin-8-yl]-3,6-dihydro-2H-pyridine-1-carboxylate]
  IC50: 30 nM

## O=C(NCCC1CCNCC1)c1ccc(Nc2nc3c(C4=CCN(C(=O)CCC(F)(F)F)CC4)cccn3n2)cc1 [Example 2-86, N-[2-(4-piperidyl)ethyl]-4-[[8-[1-(4,4,4-trifluorobutanoyl)-3,6-dihydro-2H-pyridin-4-yl]-[1,2,4]triazolo[1,5-a]pyridin-2-yl]amino]benzamide]
  IC50: 216 nM

## O=C(CCC(F)(F)F)N1CC=C(c2cccn3nc(Nc4ccc(C(=O)N5CCC(c6cc7cccnc7[nH]6)CC5)cc4)nc23)CC1 [Example 2-155, 4,4,4-trifluoro-1-[4-[2-[4-[4-(1H-pyrrolo[2,3-b]pyridin-2-yl)piperidine-1-carbonyl]anilino]-[1,2,4]triazolo[1,5-a]pyridin-8-yl]-3,6-dihydro-2H-pyridin-1-yl]butan-1-one]
  IC50: 132 nM

## COCCN1CCN(C(=O)c2ccc(Nc3nc4c(C5=CCN(C(=O)CCC(F)(F)F)CC5)cccn4n3)cc2)CC1 [Example 2-331, 4,4,4-trifluoro-1-[4-[2-[4-[4-(2-methoxyethyl)piperazine-1-carbonyl]anilino]-[1,2,4]triazolo[1,5-a]pyridin-8-yl]-3,6-dihydro-2H-pyridin-1-yl]butan-1-one]
  IC50: 8.9 nM

## O=C(NCCN1CCC(O)CC1)c1ccc(Nc2nc3c(N4CCC(O)(c5ccc(Cl)cc5)CC4)cccn3n2)cc1 [Example 1-95, 4-[[8-[4-(4-chlorophenyl)-4-hydroxy-1-piperidyl]-[1,2,4]triazolo[1,5-a]pyridin-2-yl]amino]-N-[2-(4-hydroxy-1-piperidyl)ethyl] benzamide]
  IC50: 115 nM

## O=C(c1ccc(Nc2nc3c(N4CCC(O)(c5ccc(Cl)cc5)CC4)cccn3n2)cc1)N1CCC2(CCNCC2)CC1 [Example 1-218, [4-[[8-[4-(4-chlorophenyl)-4-hydroxy-1-piperidyl]-[1,2,4]triazolo[1,5-a]pyridin-2-yl]amino]phenyl]-(3,9-diazaspiro[5.5]undecan-3-yl)methanone]
  IC50: 165 nM

## O=C(c1ccc(Nc2nc3c(N4CCC(O)(c5ccc(Cl)cc5)CC4)cccn3n2)cc1)N1CCCC12CCCNC2 (centres unmarked) [Example 1-233, [4-[[8-[4-(4-chlorophenyl)-4-hydroxy-1-piperidyl]-[1,2,4]triazolo[1,5-a]pyridin-2-yl]amino]phenyl]-(1,9-diazaspiro[4.5]decan-1-yl)methanone]
  IC50: 164 nM

## CN1CCC(CNC(=O)c2ccc(Nc3nc4c(C5=CCN(C(=O)CCC(F)(F)F)CC5)cccn4n3)cc2)CC1 [Example 2-467, N-[(1-methyl-4-piperidyl)methyl]-4-[[8-[1-(4,4,4-trifluorobutanoyl)-3,6-dihydro-2H-pyridin-4-yl]-[1,2,4]triazolo[1,5-a]pyridin-2-yl]amino]benzamide]
  IC50: 20.9 nM

## O=C(N[C@H]1CN2CCC1CC2)c1ccc(Nc2nc3c(C4=CCN(C(=O)CCC(F)(F)F)CC4)cccn3n2)cc1 [Example 2-469, N-[(3R)-quinuclidin-3-yl]-4-[[8-[1-(4,4,4-trifluorobutanoyl)-3,6-dihydro-2H-pyridin-4-yl]-[1,2,4]triazolo[1,5-a]pyridin-2-yl]amino]benzamide]
  IC50: 83.8 nM

## CC1CN(C2CCN(C(=O)c3ccc(Nc4nc5c(C6=CCN(C(=O)CCC(F)(F)F)CC6)cccn5n4)cc3)CC2)CC(C)O1 (centres unmarked) [Example 2-157, 1-[4-[2-[4-[4-(2,6-dimethylmorpholin-4-yl)piperidine-1-carbonyl]anilino]-[1,2,4]triazolo[1,5-a]pyridin-8-yl]-3,6-dihydro-2H-pyridin-1-yl]-4,4,4-trifluoro-butan-1-one]
  IC50: 4.7 nM

## O=C(CCC(F)(F)F)N1CC=C(c2cccn3nc(Nc4ccc(C(=O)N5CC[C@H]6CNC[C@H]65)cc4)nc23)CC1 [Example 2-320, 1-[4-[2-[4-[(3aS,6aS)-3,3a,4,5,6,6a-hexahydro-2H-pyrrolo[2,3-c]pyrrole-1-carbonyl]anilino]-[1,2,4]triazolo[1,5-a]pyridin-8-yl]-3,6-dihydro-2H-pyridin-1-yl]-4,4,4-trifluoro-butan-1-one]
  IC50: 120 nM

## CN1C(C)(C)CC(NC(=O)c2ccc(Nc3nc4c(C5=CCN(C(=O)CCC(F)(F)F)CC5)cccn4n3)cc2)CC1(C)C [Example 2-332, N-(1,2,2,6,6-pentamethyl-4-piperidyl)-4-[[8-[1-(4,4,4-trifluorobutanoyl)-3,6-dihydro-2H-pyridin-4-yl]-[1,2,4]triazolo[1,5-a]pyridin-2-yl]amino]benzamide]
  IC50: 9.2 nM

## O=C(CCC(F)(F)F)N1CC=C(c2cccn3nc(Nc4ccc(C(=O)N5CCN(CCN6CCOCC6)CC5)cc4)nc23)CC1 [Example 2-474, 4,4,4-trifluoro-1-[4-[2-[4-[4-(2-morpholinoethyl)piperazine-1-carbonyl]anilino]-[1,2,4]triazolo[1,5-a]pyridin-8-yl]-3,6-dihydro-2H-pyridin-1-yl]butan-1-one]
  IC50: 14.1 nM

## O=C(N[C@H]1CCCNC1)c1ccc(Nc2nc3c(C4=CCN(C(=O)CCC(F)(F)F)CC4)cccn3n2)cc1 [Example 2-138, N-[(3S)-3-piperidyl]-4-[[8-[1-(4,4,4-trifluorobutanoyl)-3,6-dihydro-2H-pyridin-4-yl]-[1,2,4]triazolo[1,5-a]pyridin-2-yl]amino]benzamide]
  IC50: 61.9 nM
